Patent publication US8426386B2, “NK1 receptor antagonist composition” (Lion Corporation, priority 2006, dated 2013)

Tested on: NK1 receptor
Assay: NK1 Receptor Antagonism Assay (calcium imaging, substance P stimulation)
Assay type: cell-based, human
Conditions: for Efficacy (NK1 receptor antagonistic activity grade): substance P 100 μM; for effect as the NK1 receptor antagonist (in words): summary of Table 1
Excerpt: [Performance Evaluation Test] NK1 Receptor Antagonism Assay
In this test, maltose, maltotriose, maltotetraose, maltopentaose, maltohexaose and maltoheptaose were purchased from SIGMA, isomaltose, isomaltotriose, isomaltotetraose, isomaltopentaose, isomaltohexaose and isomaltoheptaose were purchased from Seikagaku Corporation, and four types of oligosaccharides-1-kestose, fructofranosylnystose, nystose and galactotetraose—were purchased from Wako Pure Chemicals Industries Ltd. Each oligosaccharide was diluted with saline, and used.
In order to transiently express a cloned human NK1 receptor in HEK293, cDNA of the human NK1 receptor was cut out from pCDM8 (Invitrogen), and cloned in an expression vector pCDM9 derived by inserting an ampicillin resistant gene (BLUESCRIPT, nucleotides 1973 to 2964 from SK+) at a SacII site.
HEK293 cells were seeded at 1×10^5 cells in a Falcon dish (diameter: 3.5 cm) using α-MEM medium (Gibco) containing 10% bovine fetal serum, and cultured in a 5% CO2 incubator at 37° C. overnight. Then, 20 μg of the expression vector was transfected using Transfection Reagent FuGENE6 (Roche) according to attached instructions, and the transfectants were incubated at 37° C. for 3 days and assayed by a calcium imaging method.
According to Renganathan et al's method (Renganathan M et al., J. Neurophysiol., 84(2), […] (2000)), nerve cells were dispersed and isolated from spinal dorsal root ganglion in a wild type mouse, and 1×10^5 thereof were seeded in a 24-well plate coated with poly-L-lysine. The cells were cultured in 90% DMEM medium (GIBCO) supplemented with 10% bovine fetal serum, 2 mM glutamine, 100 U/mL of penicillin/streptomycin, 100 ng/mL of NGF (SIGMA) and 5 μM cytosine arabinoside (SIGMA) under 5% CO2 at 37° C. The cells were cultured for 1 to 3 weeks, and subsequently subjected to a calcium imaging analysis. A half of the nerve cells was identified to be positive for the NK1 receptor by staining the nerve cells derived from spinal dorsal root ganglion in the wild type mouse with an anti-NK1 receptor antibody (supplied from CHEMICON International).
The cells which express the NK1 receptor transiently or constitutively were subjected to measurement using a high resolution digital B/W cooling CCD camera (ORCA supplied from Hamamatsu Photonics K.K.), and their images were analyzed using an analysis software (AQUA COSMOS supplied from Hamamatsu Photonics K.K.). When the cells were labeled for calcium, Fluo4-AM (supplied from Molecular Probe) was used as a calcium sensitive dye. Fifty μg of Fluo4-AM was dissolved in 400 μL of DMSO in a vial, 4 μL of Pluronic F-127 (Molecular Probe) was added and mixed, and then 4 mL of OPTI-MEM (GIBCO) was added thereto. The calcium sensitive dye solution thus prepared was added to the cells, which were then incubated at 37° C. for 60 minutes. An agonist, an antagonist and samples to be evaluated were prepared at concentrations which were 10 times higher than assay concentrations, and analyzed by adding a one tenth volume of the cell suspension upon analysis. All reagents and an assay temperature were kept at 37° C. For the cells transfected transiently, YFP reporter DNA fluorescence (excitation: 490 nm) was used for identifying the transfected cells. Upon measurement, a fluorescence intensity obtained by initially imaging the untreated cells was made an initial value. After passing one minute, a change of calcium/fluorescence intensity in the sample to be evaluated at the desired concentration was monitored with an interval of one second before and after the addition (2 to 5 minutes). Subsequently, substance P was added, and immediately after (2 to 5 minutes), an antagonistic activity of the sample to be evaluated was determined by monitoring the change of intracellular calcium concentrations as the change of the fluorescence intensities with the interval of one second. […]

[1] = evaluated concentration 1000 ppm
[2] = evaluated concentration 0.1 ppm
[3] = evaluated concentration 100 ppm

Compound: OC[C@H]1O[C@H](OC[C@H]2O[C@H](OC[C@H]3O[C@H](OC[C@H]4O[C@H](OC[C@H]5O[C@H](OC[C@H]6O[C@H](OC[C@H]7OC(O)[C@H](O)[C@@H](O)[C@@H]7O)[C@H](O)[C@@H](O)[C@@H]6O)[C@H](O)[C@@H](O)[C@@H]5O)[C@H](O)[C@@H](O)[C@@H]4O)[C@H](O)[C@@H](O)[C@@H]3O)[C@H](O)[C@@H](O)[C@@H]2O)[C@H](O)[C@@H](O)[C@@H]1O (stereo partly shown) [Isomaltoheptaose, isomaltoheptaose, reference compound]
- Efficacy (NK1 receptor antagonistic activity grade) [1]: D (Ineffective: the antagonistic activity was less than 65%, or the stimulating or agonistic activity of the sample was strong.)
- effect as the NK1 receptor antagonist (in words): no NK1 receptor antagonistic activity was observed at all

Compound: maltohexaose
- Efficacy (NK1 receptor antagonistic activity grade) [2]: C (Slightly effective: the antagonistic activity was less than 65%, and a stimulating or agonistic activity of the sample was weak.)
- Efficacy (NK1 receptor antagonistic activity grade) (evaluated concentration 1 ppm): C (Slightly effective: the antagonistic activity was less than 65%, and a stimulating or agonistic activity of the sample was weak.)
- Efficacy (NK1 receptor antagonistic activity grade) (evaluated concentration 10 ppm): B (Effective: the antagonistic activity was 65% or more and less than 75% and the more excellent performance than in the positive control was shown.)
- Efficacy (NK1 receptor antagonistic activity grade) [3]: B (Effective: the antagonistic activity was 65% or more and less than 75% and the more excellent performance than in the positive control was shown.)
- Efficacy (NK1 receptor antagonistic activity grade) [1]: B (Effective: the antagonistic activity was 65% or more and less than 75% and the more excellent performance than in the positive control was shown.)
- effect as the NK1 receptor antagonist (in words): high effect

Compound: OC[C@H]1O[C@@H](O[C@@H]2[C@H](O)[C@@H](O)[C@H](O[C@@H]3[C@H](O)[C@@H](O)[C@H](O[C@@H]4[C@H](O)[C@@H](O)C(O)O[C@@H]4CO)O[C@@H]3CO)O[C@@H]2CO)[C@H](O)[C@@H](O)[C@H]1O (stereo partly shown) [Galactotetraose, galactotetraose, reference compound]
- Efficacy (NK1 receptor antagonistic activity grade) [1]: D (Ineffective: the antagonistic activity was less than 65%, or the stimulating or agonistic activity of the sample was strong.)
- effect as the NK1 receptor antagonist (in words): no NK1 receptor antagonistic activity was observed at all

Compound: maltoheptaose
- Efficacy (NK1 receptor antagonistic activity grade) [2]: D (Ineffective: the antagonistic activity was less than 65%, or the stimulating or agonistic activity of the sample was strong.)
- Efficacy (NK1 receptor antagonistic activity grade) (evaluated concentration 1 ppm): C (Slightly effective: the antagonistic activity was less than 65%, and a stimulating or agonistic activity of the sample was weak.)
- Efficacy (NK1 receptor antagonistic activity grade) (evaluated concentration 10 ppm): C (Slightly effective: the antagonistic activity was less than 65%, and a stimulating or agonistic activity of the sample was weak.)
- Efficacy (NK1 receptor antagonistic activity grade) [3]: B (Effective: the antagonistic activity was 65% or more and less than 75% and the more excellent performance than in the positive control was shown.)
- Efficacy (NK1 receptor antagonistic activity grade) [1]: B (Effective: the antagonistic activity was 65% or more and less than 75% and the more excellent performance than in the positive control was shown.)
- effect as the NK1 receptor antagonist (in words): high effect

Compound: OC[C@H]1O[C@@](CO)(OC[C@@]2(OC[C@@]3(O[C@H]4O[C@H](CO)[C@@H](O)[C@H](O)[C@H]4O)O[C@H](CO)[C@@H](O)[C@@H]3O)O[C@H](CO)[C@@H](O)[C@@H]2O)[C@@H](O)[C@@H]1O [Nystose, nystose, reference compound]
- Efficacy (NK1 receptor antagonistic activity grade) [1]: D (Ineffective: the antagonistic activity was less than 65%, or the stimulating or agonistic activity of the sample was strong.)
- effect as the NK1 receptor antagonist (in words): no NK1 receptor antagonistic activity was observed at all

Compound: OC[C@H]1O[C@H](O[C@H]2[C@H](O)[C@@H](O)C(O)O[C@@H]2CO)[C@H](O)[C@@H](O)[C@@H]1O (mixture of isomers) [Maltose, maltose]
- Efficacy (NK1 receptor antagonistic activity grade) [2]: D (Ineffective: the antagonistic activity was less than 65%, or the stimulating or agonistic activity of the sample was strong.)
- Efficacy (NK1 receptor antagonistic activity grade) (evaluated concentration 1 ppm): D (Ineffective: the antagonistic activity was less than 65%, or the stimulating or agonistic activity of the sample was strong.)
- Efficacy (NK1 receptor antagonistic activity grade) (evaluated concentration 10 ppm): C (Slightly effective: the antagonistic activity was less than 65%, and a stimulating or agonistic activity of the sample was weak.)
- Efficacy (NK1 receptor antagonistic activity grade) [3]: C (Slightly effective: the antagonistic activity was less than 65%, and a stimulating or agonistic activity of the sample was weak.)
- Efficacy (NK1 receptor antagonistic activity grade) [1]: B (Effective: the antagonistic activity was 65% or more and less than 75% and the more excellent performance than in the positive control was shown.)
- effect as the NK1 receptor antagonist (in words): high effect

Compound: OC[C@H]1O[C@H](OC[C@H]2O[C@H](OC[C@H]3O[C@H](OC[C@H]4O[C@H](OC[C@H]5OC(O)[C@H](O)[C@@H](O)[C@@H]5O)[C@H](O)[C@@H](O)[C@@H]4O)[C@H](O)[C@@H](O)[C@@H]3O)[C@H](O)[C@@H](O)[C@@H]2O)[C@H](O)[C@@H](O)[C@@H]1O (stereo partly shown) [Isomaltopentaose, isomaltopentaose, reference compound]
- Efficacy (NK1 receptor antagonistic activity grade) [1]: D (Ineffective: the antagonistic activity was less than 65%, or the stimulating or agonistic activity of the sample was strong.)
- effect as the NK1 receptor antagonist (in words): no NK1 receptor antagonistic activity was observed at all

Compound: OC[C@H]1O[C@H](O[C@H]2[C@H](O)[C@@H](O)[C@@H](O[C@H]3[C@H](O)[C@@H](O)[C@@H](O[C@H]4[C@H](O)[C@@H](O)C(O)O[C@@H]4CO)O[C@@H]3CO)O[C@@H]2CO)[C@H](O)[C@@H](O)[C@@H]1O (stereo partly shown) [Maltotetraose, maltotetraose]
- efficacy at a low concentration (in words) (0.1 ppm): high efficacy
- Efficacy (NK1 receptor antagonistic activity grade) [2]: B (Effective: the antagonistic activity was 65% or more and less than 75% and the more excellent performance than in the positive control was shown.)
- Efficacy (NK1 receptor antagonistic activity grade) (evaluated concentration 1 ppm): A (Complete response: the antagonistic activity was 75% or more and much more excellent performance than in the positive control was shown.)
- Efficacy (NK1 receptor antagonistic activity grade) (evaluated concentration 10 ppm): A (Complete response: the antagonistic activity was 75% or more and much more excellent performance than in the positive control was shown.)
- Efficacy (NK1 receptor antagonistic activity grade) [3]: A (Complete response: the antagonistic activity was 75% or more and much more excellent performance than in the positive control was shown.)
- Efficacy (NK1 receptor antagonistic activity grade) [1]: A (Complete response: the antagonistic activity was 75% or more and much more excellent performance than in the positive control was shown.)
- effect as the NK1 receptor antagonist (in words): high effect

Compound: OC[C@H]1O[C@H](OC[C@H]2O[C@H](OC[C@H]3O[C@H](OC[C@H]4OC(O)[C@H](O)[C@@H](O)[C@@H]4O)[C@H](O)[C@@H](O)[C@@H]3O)[C@H](O)[C@@H](O)[C@@H]2O)[C@H](O)[C@@H](O)[C@@H]1O (stereo partly shown) [Isomaltotetraose, isomaltotetraose, reference compound]
- Efficacy (NK1 receptor antagonistic activity grade) [1]: D (Ineffective: the antagonistic activity was less than 65%, or the stimulating or agonistic activity of the sample was strong.)
- effect as the NK1 receptor antagonist (in words): no NK1 receptor antagonistic activity was observed at all

Compound: OC[C@H]1O[C@@](CO)(OC[C@@]2(OC[C@@]3(OC[C@@]4(O[C@H]5O[C@H](CO)[C@@H](O)[C@H](O)[C@H]5O)O[C@H](CO)[C@@H](O)[C@@H]4O)O[C@H](CO)[C@@H](O)[C@@H]3O)O[C@H](CO)[C@@H](O)[C@@H]2O)[C@@H](O)[C@@H]1O [Fructofranosylnystose, fructofranosylnystose, reference compound]
- Efficacy (NK1 receptor antagonistic activity grade) [1]: D (Ineffective: the antagonistic activity was less than 65%, or the stimulating or agonistic activity of the sample was strong.)
- effect as the NK1 receptor antagonist (in words): no NK1 receptor antagonistic activity was observed at all
